Reference: patent US20030069285A1 (Recordati Ireland Limited, priority 2001, published 2003)

Assays:
[1] = system: isolated rat aorta; settings: in vitro; even after the drug has been removed from the environment of the aortic tissue for 6 hours; cited from earlier work
[2] = Thermogravimetric analysis (TG and TGFTIR); type: physicochemical; settings: heated in nitrogen stream at 10° C./min; only CO2 is present
Description: Each sample weighing 2 to 5 mg was placed in an aluminum crucible of an apparatus PERKIN ELMER TGS-2 Thermogravimetric System (Perkin-Elmer International, Inc., Rotkreuz, Switzerland) and heated in nitrogen stream at a rate of 10° C./min. The thermogravimetric analysis together with an IR analysis in Fourier transform was carried out according to the following operating modes. Each sample weighing 2 to 5 mg was placed in an aluminum crucible of an apparatus Netzsch Thermomicrobalance TG209 (Netzsch Gerätebau, Seib, Germany) coupled with a spectrometer in Fourier transform BRUKER FTIR Vector 22 (Spectrospin, Fällanden, Switzerland) and heated in nitrogen stream at a rate of 10° C./min.

Row | temperature above which degradation was observed [2] | Compound | isolated rat aorta response to high K+ [1]
1 | – | COC(=O)C1=C(C)NC(C)=C(C(=O)OC(C)(C)CN(C)CCC(c2ccccc2)c2ccccc2)C1c1cccc([N+](=O)[O-])c1 (centres unmarked) [Lercanidipine, methyl 1,1,N-trimethyl-N-(3,3-diphenylpropyl)-2-aminoethyl 1,4-dihydro-2,6-dimethyl-4-(3-nitrophenyl)pyridine-3,5-dicarboxylate] | attenuated
2 | above 180 °C | lercanidipine hydrochloride-terbutyl methyl ether | –
